In ChEMBL document CHEMBL1275539 (2008):
≈ marks a conversion by molar mass, not a printed value.

Assays:
Type in all cases: functional
[1] = tested on: Streptococcus pneumoniae; experiment: Antibacterial activity against cefotaxime-intermediate Streptococcus pneumoniae isolate by agar dilution method
[2] = tested on: Streptococcus pneumoniae; experiment: Antibacterial activity against amoxicillin-resistant Streptococcus pneumoniae isolate by agar dilution method
[3] = tested on: Streptococcus pneumoniae; experiment: Antibacterial activity against amoxicillin-intermediate Streptococcus pneumoniae assessed as percent susceptible isolates by agar dilution method
[4] = tested on: Streptococcus pneumoniae; experiment: Antibacterial activity against erythromycin-resistant Streptococcus pneumoniae assessed as percent susceptible isolates by agar dilution method
[5] = tested on: Streptococcus pneumoniae; experiment: Antibacterial activity against cefotaxime-resistant Streptococcus pneumoniae assessed as percent susceptible isolates by agar dilution method
[6] = tested on: Streptococcus pneumoniae; experiment: Antibacterial activity against penicillin-nonsusceptible Streptococcus pneumoniae isolate by agar dilution method
[7] = tested on: Streptococcus pneumoniae; experiment: Antibacterial activity against amoxicillin-resistant Streptococcus pneumoniae assessed as percent susceptible isolates by agar dilution method
[8] = tested on: Streptococcus pneumoniae; experiment: Antibacterial activity against penicillin-susceptible Streptococcus pneumoniae isolate by agar dilution method
[9] = tested on: Streptococcus pneumoniae; experiment: Antibacterial activity against erythromycin-resistant Streptococcus pneumoniae isolate by agar dilution method
[10] = tested on: Streptococcus pneumoniae; experiment: Antibacterial activity against levofloxacin-resistant Streptococcus pneumoniae isolate by agar dilution method
[11] = tested on: Streptococcus pneumoniae; experiment: Antibacterial activity against penicillin-nonsusceptible Streptococcus pneumoniae assessed as percent susceptible isolates by agar dilution method
[12] = tested on: Streptococcus pneumoniae; experiment: Antibacterial activity against cefotaxime-intermediate Streptococcus pneumoniae assessed as percent susceptible isolates by agar dilution method
[13] = tested on: Streptococcus pneumoniae; experiment: Antibacterial activity against penicillin-susceptible Streptococcus pneumoniae assessed as percent susceptible isolates by agar dilution method
[14] = tested on: Streptococcus pneumoniae; experiment: Antibacterial activity against levofloxacin-resistant Streptococcus pneumoniae assessed as percent susceptible isolates by agar dilution method
[15] = tested on: Streptococcus pneumoniae; experiment: Antibacterial activity against cefotaxime-resistant Streptococcus pneumoniae isolate by agar dilution method
[16] = tested on: Streptococcus pneumoniae; experiment: Antibacterial activity against amoxicillin-intermediate Streptococcus pneumoniae isolate by agar dilution method

SMILES | MIC50 [1] [µg/mL] | MIC90 [1] [µg/mL] | MIC50 [2] [µg/mL] | MIC90 [2] [µg/mL] | Activity [3] [%] | Activity [4] [%] | MIC50 [6] [µg/mL] | MIC90 [6] [µg/mL] | MIC50 [8] [µg/mL] | MIC90 [8] [µg/mL] | MIC50 [9] [µg/mL] | MIC90 [9] [µg/mL] | MIC50 [10] [µg/mL] | MIC90 [10] [µg/mL] | Activity [11] [%] | Activity [12] [%] | MIC50 [15] [µg/mL] | MIC90 [15] [µg/mL] | MIC50 [16] [µg/mL] | MIC90 [16] [µg/mL] | further results
CO/N=C(\C(=O)N[C@@H]1C(=O)N2C(C(=O)[O-])=C(C[N+]3(C)CCCC3)CS[C@H]12)c1csc(N)n1 | 2 (≈ 4.16 µM) | 2 (≈ 4.16 µM) | 2 (≈ 4.16 µM) | 8 (≈ 16.6 µM) | 40 | 64.9 | 2 (≈ 4.16 µM) | 4 (≈ 8.32 µM) | 1 (≈ 2.08 µM) | 2 (≈ 4.16 µM) | 1 (≈ 2.08 µM) | 2 (≈ 4.16 µM) | 0.25 (≈ 0.52 µM) | 2 (≈ 4.16 µM) | 8.3 | 29.9 | 2 (≈ 4.16 µM) | 4 (≈ 8.32 µM) | 2 (≈ 4.16 µM) | 2 (≈ 4.16 µM) | Activity [5]: 12.5%; Activity [7]: 16.4%; Activity [13]: 66.4%; Activity [14]: 82.9%
CC1(C)S[C@@H]2[C@H](NC(=O)[C@H](N)c3ccc(O)cc3)C(=O)N2[C@H]1C(=O)O [AMOXICILLIN] | 4 (≈ 10.9 µM) | 16 (≈ 43.8 µM) | 8 (≈ 21.9 µM) | 16 (≈ 43.8 µM) | 0 | 62.2 | 8 (≈ 21.9 µM) | ≥ 16 | 2 (≈ 5.47 µM) | 8 (≈ 21.9 µM) | 2 (≈ 5.47 µM) | 8 (≈ 21.9 µM) | ≤ 0.06 | 8 (≈ 21.9 µM) | 13.3 | 30.6 | 8 (≈ 21.9 µM) | 16 (≈ 43.8 µM) | 4 (≈ 10.9 µM) | 4 (≈ 10.9 µM) | Activity [5]: 6.3%; Activity [13]: 66.7%; Activity [14]: 73.7%
CC1(C)S[C@@H]2[C@H](NC(=O)[C@H](N)c3ccccc3)C(=O)N2[C@H]1C(=O)O [AMPICILLIN] | 8 (≈ 22.9 µM) | ≥ 16 | 8 (≈ 22.9 µM) |  |  |  | 8 (≈ 22.9 µM) | ≥ 16 | 2 (≈ 5.72 µM) | 8 (≈ 22.9 µM) | 4 (≈ 11.4 µM) | 8 (≈ 22.9 µM) | 0.12 (≈ 0.343 µM) | 8 (≈ 22.9 µM) |  |  | 8 (≈ 22.9 µM) |  | 4 (≈ 11.4 µM) | 8 (≈ 22.9 µM) | 
CO/N=C(\C(=O)N[C@@H]1C(=O)N2C(C(=O)O)=C(COC(C)=O)CS[C@H]12)c1csc(N)n1 [CEFOTAXIME] | 2 (≈ 4.39 µM) | 2 (≈ 4.39 µM) | 2 (≈ 4.39 µM) | 2 (≈ 4.39 µM) | 62.4 | 77 | 2 (≈ 4.39 µM) | 4 (≈ 8.78 µM) | 1 (≈ 2.2 µM) | 2 (≈ 4.39 µM) | 1 (≈ 2.2 µM) | 2 (≈ 4.39 µM) | 0.06 (≈ 0.132 µM) | 1 (≈ 2.2 µM) | 25 | 0 | 4 (≈ 8.78 µM) | 8 (≈ 17.6 µM) | 1 (≈ 2.2 µM) | 2 (≈ 4.39 µM) | Activity [7]: 49.7%; Activity [13]: 80.7%
CCO/N=C(\C(=O)N[C@@H]1C(=O)N2C(C(=O)[O-])=C(Sc3nc(-c4cc[n+](C)cc4)cs3)CS[C@H]12)c1nsc(NP(=O)(O)O)n1 [CEFTAROLINE FOSAMIL] | 0.12 (≈ 0.175 µM) | 0.25 (≈ 0.365 µM) | 0.12 (≈ 0.175 µM) | 0.25 (≈ 0.365 µM) |  |  | 0.12 (≈ 0.175 µM) | 0.25 (≈ 0.365 µM) | 0.12 (≈ 0.175 µM) | 0.12 (≈ 0.175 µM) | 0.12 (≈ 0.175 µM) | 0.25 (≈ 0.365 µM) | 0.03 (≈ 0.0438 µM) | 0.12 (≈ 0.175 µM) |  |  | 0.25 (≈ 0.365 µM) | 0.25 (≈ 0.365 µM) | 0.12 (≈ 0.175 µM) | 0.25 (≈ 0.365 µM) | 
CO/N=C(\C(=O)N[C@@H]1C(=O)N2C(C(=O)O)=C(CSc3nc(=O)c(O)nn3C)CS[C@H]12)c1csc(N)n1 [CEFTRIAXONE] | 1 (≈ 1.8 µM) | 1 (≈ 1.8 µM) | 1 (≈ 1.8 µM) | 1 (≈ 1.8 µM) | 95.3 | 97.1 | 1 (≈ 1.8 µM) | 2 (≈ 3.61 µM) | 0.5 (≈ 0.902 µM) | 1 (≈ 1.8 µM) | 0.5 (≈ 0.902 µM) | 1 (≈ 1.8 µM) | 0.06 (≈ 0.108 µM) | 1 (≈ 1.8 µM) | 83.3 | 97.2 | 2 (≈ 3.61 µM) | 4 (≈ 7.21 µM) | 1 (≈ 1.8 µM) | 1 (≈ 1.8 µM) | Activity [5]: 31.3%; Activity [7]: 95.2%; Activity [13]: 98.8%; Activity [14]: 99.3%
CO/N=C(\C(=O)N[C@@H]1C(=O)N2C(C(=O)O)=C(COC(N)=O)CS[C@H]12)c1ccco1 [CEFUROXIME] | 8 (≈ 18.9 µM) | 16 (≈ 37.7 µM) | 8 (≈ 18.9 µM) | 16 (≈ 37.7 µM) | 0 | 26.8 | 8 (≈ 18.9 µM) | 16 (≈ 37.7 µM) | 4 (≈ 9.43 µM) | 8 (≈ 18.9 µM) | 4 (≈ 9.43 µM) | 8 (≈ 18.9 µM) | 0.25 (≈ 0.589 µM) | 8 (≈ 18.9 µM) | 0 | 0 | 16 (≈ 37.7 µM) | ≥ 32 | 4 (≈ 9.43 µM) | 16 (≈ 37.7 µM) | Activity [13]: 31.6%; Activity [14]: 55.3%
CC[C@H]1OC(=O)[C@H](C)[C@@H](O[C@H]2C[C@@](C)(OC)[C@@H](O)[C@H](C)O2)[C@H](C)[C@@H](O[C@@H]2O[C@H](C)C[C@H](N(C)C)[C@H]2O)[C@](C)(O)C[C@@H](C)C(=O)[C@H](C)[C@@H](O)[C@]1(C)O [ERYTHROMYCIN] | 0.25 (≈ 0.341 µM) | ≥ 32 | < 0.12 |  | 30.6 | 0 | ≤ 0.12 | ≥ 32 |  |  |  |  |  |  | 63.3 | 50 |  |  | ≥ 32 | ≥ 32 | Activity [5]: 62.5%; Activity [7]: 58.2%; Activity [14]: 40.8%
C[C@H]1COc2c(N3CCN(C)CC3)c(F)cc3c(=O)c(C(=O)O)cn1c23.C[C@H]1COc2c(N3CCN(C)CC3)c(F)cc3c(=O)c(C(=O)O)cn1c23.O [LEVOFLOXACIN] | ≤ 1 | 1 | < 1 | 16 |  | 72 | ≤ 1 | ≤ 1 |  |  |  | 16 | 16 | ≥ 32 | 95 | 97.2 |  | 1 | ≤ 1 | 16 | Activity [5]: 93.8%; Activity [7]: 86.7%; Activity [14]: 0%
CC1(C)S[C@@H]2[C@H](NC(=O)Cc3ccccc3)C(=O)N2[C@H]1C(=O)O [PENICILLIN G] | 2 (≈ 5.98 µM) | 4 (≈ 12 µM) | 2 (≈ 5.98 µM) | 4 (≈ 12 µM) | 94.1 | 93.5 | 4 (≈ 12 µM) | 4 (≈ 12 µM) | 1 (≈ 2.99 µM) | 2 (≈ 5.98 µM) | 1 (≈ 2.99 µM) | 2 (≈ 5.98 µM) | 0.06 (≈ 0.179 µM) | 2 (≈ 5.98 µM) | 0 | 76.4 | 4 (≈ 12 µM) | 8 (≈ 23.9 µM) | 2 (≈ 5.98 µM) | 2 (≈ 5.98 µM) | Activity [5]: 31.3%; Activity [7]: 71.5%; Activity [13]: 100%; Activity [14]: 98%
